According to US20130064794A1, “Substituted Carbonyloxymethylphosphoramidate Compounds and Pharmaceutical Compositions for the Treatment of Viral Infections” (IDENIX PHARMACEUTICALS, INC., priority 2011, published 2013):

Columns and labels:
[1] = Cytotoxicity evaluation, CellTiter-Blue Cell Viability Assay; type: cell-based; settings: human, Zluc cells (Huh-7-derived cell line), read-out: HCV Replicon CC50
Experimental: (§1) For cytotoxicity evaluation, Zluc cells were treated with compound as described above, and cell viability was monitored using the CellTiter-Blue Cell Viability Assay (Promega) by adding 20 μL of the assay solution to each well. The plates were then incubated at 37° C./5% CO2 for at least 3 hours.

[2] = Stability in HIS9 (intestinal S9); type: in vitro ADME, human; settings: 10 μM, 1.0 mg/mL protein, NADPH, 60 min
Experimental: HLM=Human liver microsome; HIM=Human intestinal microsome; HLS9=Human liver S9 fraction; HIS9=Human […] S9 fraction; SGF=Simulated gastric fluid; SIF=Simulated intestinal fluid.
Stability of Compound 1 and its diastereomer were determined in subcellular fractions (microsomes and S9) of human liver and intestine in duplicate for each matrix. Pooled liver and intestinal microsomal, intestinal and liver S9 proteins (1.0 mg/mL), suspended in incubation buffer (100 mM potassium phosphate, pH 7.4, 5 mM MgCl2, and 0.1 mM EDTA), were preincubated for 5 min at 37° C. with 10 μM of a test compound from a 10 mM stock solution in DMSO (final DMSO concentration was 0.1%); the reaction was initiated by the addition of NADPH (3 mM final concentration). At specific times (0 and 60 min), 0.1 mL samples were taken and the reaction terminated by the addition of 4 volumes of stop solution (acetonitrile with 500 ng/mL carbutamide as an internal standard). The samples were vortexed for 30 sec and then centrifuged at 16,000 g for 10 min. 100 μL of supernatants were transferred to 96 deep-well plates preloaded with 100 μL distilled water and analyzed after mixing by LC-MS/MS. The MS peak area ratio of the test compound versus the internal standard was calculated and percent unchanged test compound over 60 minutes was calculated using this ratio.

[3] = test system: Zluc cells (Huh-7-derived cell line); test: Cytotoxicity evaluation, CellTiter-Blue Cell Viability Assay; type: cell-based; settings: read-out: HCV Replicon CC50
Experimental: as §1

In the case of `CCOC(=O)OC(C)OP(=O)(N[C@@H](C)C(=O)OC(C)C)OC[C@H]1O[C@@H](n2cnc3c(OC)nc(N)nc32)[C@](C)(F)[C@@H]1O` (single isomer, unassigned) [Compound 14], the CC50 [1] is reported as over 50 µM and the “Percent Remaining, HIS9 (1 hr)” value [2] is reported as 53%.
For `CCOC(=O)OC(C)OP(=O)(N[C@@H](C)C(=O)OC(C)C)OC[C@H]1O[C@@H](n2cnc3c(OC)nc(N)nc32)[C@](C)(F)[C@@H]1O` (single isomer, unassigned) [Compound 15], the CC50 [3] was over 50 µM and the “Percent Remaining, HIS9 (1 hr)” value [2] was 76%.
